Here are results for six molecules from patent publication US20240033224A1, “ENTERIC-COATED PELLET, METHOD FOR PREPARING SAME AND FORMULATION COMPRISING SAME” (LIVZON PHARMACEUTICAL GROUP INC., priority 2020, published 2024).

This data set is described as follows: Stability of prazole starting materials in phosphate buffer media at pH 6.8 and 8.0. As to the method: Phosphate buffer media at pH 6.8 and 8.0 containing 0.5% w/w of sodium dodecyl sulfate were prepared, added into dissolution cups, with 1000 mL per cup. 0.5 mg of each of ilaprazole, omeprazole magnesium, esomeprazole magnesium, rabeprazole sodium, pantoprazole and lansoprazole was weighed and added into the dissolution cups, stirred at 150 rpm by a paddle method to ensure that the prazole starting materials sank into the media and dissolved therein. 5 mL of each of the samples was collected at 15 min, 30 min, 45 min and 60 min respectively, and added to 20 mL of sodium hydroxide stabilization medium, and then the volume was made up to 50 mL with the mobile phase.
The collected sample content in the media was determined according to the determination method of omeprazole magnesium, esomeprazole magnesium, rabeprazole sodium, pantoprazole sodium and lansoprazole in the Chinese Pharmacopoeia (Volume II, 2015 Edition) so as to determine the stability of the prazoles in the media at pH 6.8 and 8.0.

Setting [1] is: buffer, 0.25 h, 0.5 µg/mL, pH 6.8.
Where [2] appears, read: buffer, 0.25 h, 0.5 µg/mL, pH 8.
Setting [3] is: buffer, 0.5 h, 0.5 µg/mL, pH 6.8.
Setting [4] is: buffer, 0.75 h, 0.5 µg/mL, pH 6.8.
[5] abbreviates: buffer, 0.75 h, 0.5 µg/mL, pH 8.

Molecules are shown by their SMILES.

Take `COc1ccc2[n-]c([S+]([O-])Cc3ncc(C)c(OC)c3C)nc2c1.COc1ccc2[n-]c([S+]([O-])Cc3ncc(C)c(OC)c3C)nc2c1.[Mg+2]` (stereo not drawn) [Esomeprazole magnesium, esomeprazole magnesium]: the “remaining amount after the degradation” value (medium at pH 6.8, 15 min) was found to be 89.6%; the “remaining amount after the degradation” value (medium at pH 6.8, 30 min) is recorded as 70.9%; the “remaining amount after the degradation” value (medium at pH 6.8, 45 min) is on record as 56.0%; the “remaining amount after the degradation” value (medium at pH 6.8, 60 min) is given as 41.4%; the “remaining amount after the degradation” value (medium at pH 8.0, 15 min) stood at 99.2%; the “remaining amount after the degradation” value (medium at pH 8.0, 30 min) came to 98.6%. For the same molecule, the “remaining amount after the degradation” value amounted to 97.6% (medium at pH 8.0, 45 min) and 96.4% (medium at pH 8.0, 60 min). The “stability in medium at pH 6.8 compared between prazoles” value (pH 6.8) is “the best”.
As to `COc1ccnc(C[S+]([O-])c2nc3cc(-n4cccc4)ccc3[nH]2)c1C` (stereo not drawn) [Ilaprazole, ilaprazole], the “remaining amount after the degradation” value is, setting by setting: (buffer, 0 h, 0.5 µg/mL, pH 6.8) 100.0%; (buffer, 0 h, 0.5 µg/mL, pH 8) 100.0%; under setting [1], 59.7%; under setting [2], 94.3%; under setting [3], 42.7%; (buffer, 0.5 h, 0.5 µg/mL, pH 8) 91.5%. Further, the “remaining amount after the degradation” value is, setting by setting: under setting [4], 29.4%; under setting [5], 88.6%; (buffer, 1 h, 0.5 µg/mL, pH 6.8) 20.7%; (buffer, 1 h, 0.5 µg/mL, pH 8) 84.6%. For the same molecule, the “stability in medium at pH 6.8 compared between prazoles” value (pH 6.8) was “the worst”.
For `Cc1c(OCC(F)(F)F)ccnc1C[S+]([O-])c1nc2ccccc2[nH]1` (stereo not drawn) [Lansoprazole, lansoprazole], the “remaining amount after the degradation” value is, setting by setting: (buffer, 0 h, 0.5 µg/mL, pH 6.8) 100.0%; (buffer, 0 h, 0.5 µg/mL, pH 8) 100.0%; under setting [1], 85.7%; under setting [2], 98.7%; under setting [3], 70.2%; (buffer, 0.5 h, 0.5 µg/mL, pH 8) 96.2%. The “remaining amount after the degradation” value was found to be 53.6% under setting [4]; 95.3% under setting [5]; 38.6% (buffer, 1 h, 0.5 µg/mL, pH 6.8); 93.5% (buffer, 1 h, 0.5 µg/mL, pH 8).
As to `COc1ccc2[n-]c([S+]([O-])Cc3ncc(C)c(OC)c3C)nc2c1.COc1ccc2[n-]c([S+]([O-])Cc3ncc(C)c(OC)c3C)nc2c1.[Mg+2]` (stereo not drawn) [Omeprazole magnesium, omeprazole magnesium], the “remaining amount after the degradation” value (buffer, 0 h, pH 6.8) was found to be 100.0%; the “remaining amount after the degradation” value (buffer, 0 h, pH 8) came out at 100.0%; the “remaining amount after the degradation” value (buffer, 0.25 h, pH 6.8) stood at 81.2%; the “remaining amount after the degradation” value (buffer, 0.25 h, pH 8) is listed as 98.2%; the “remaining amount after the degradation” value (buffer, 0.5 h, pH 6.8) is 66.7%; the “remaining amount after the degradation” value (buffer, 0.5 h, pH 8) was found to be 95.4%. Further, the “remaining amount after the degradation” value was determined as 47.4% (buffer, 0.75 h, pH 6.8); 96.3% (buffer, 0.75 h, pH 8); 29.2% (buffer, 1 h, pH 6.8); 91.2% (buffer, 1 h, pH 8).
Regarding `COc1ccnc(C[S+]([O-])c2nc3ccc(OC(F)F)cc3[nH]2)c1OC` (stereo not drawn) [Pantoprazole sodium, pantoprazole sodium], the “remaining amount after the degradation” value is 100.0% (buffer, 0 h, 0.5 µg/mL, pH 6.8); 100.0% (buffer, 0 h, 0.5 µg/mL, pH 8); 83.6% under setting [1]; 98.6% under setting [2]; 65.9% under setting [3]; 95.9% (buffer, 0.5 h, 0.5 µg/mL, pH 8). Also, the “remaining amount after the degradation” value is, setting by setting: under setting [4], 50.2%; under setting [5], 92.2%; (buffer, 1 h, 0.5 µg/mL, pH 6.8) 35.4%; (buffer, 1 h, 0.5 µg/mL, pH 8) 91.4%.
On to `COCCCOc1ccnc(C[S+]([O-])c2nc3ccccc3[nH]2)c1C` (stereo not drawn) [Rabeprazole sodium, rabeprazole sodium], for which the “remaining amount after the degradation” value (buffer, 0 h, 0.5 µg/mL, pH 6.8) is 100.0%; the “remaining amount after the degradation” value (buffer, 0 h, 0.5 µg/mL, pH 8) came to 100.0%; the “remaining amount after the degradation” value under setting [1] is given as 70.3%; the “remaining amount after the degradation” value under setting [2] worked out at 97.3%; the “remaining amount after the degradation” value under setting [3] was found to be 51.5%; the “remaining amount after the degradation” value (buffer, 0.5 h, 0.5 µg/mL, pH 8) is recorded as 93.5%. Besides, the “remaining amount after the degradation” value is, setting by setting: under setting [4], 38.6%; under setting [5], 90.6%; (buffer, 1 h, 0.5 µg/mL, pH 6.8) 24.6%; (buffer, 1 h, 0.5 µg/mL, pH 8) 88.5%.
